# Assay results taken from patent US20070232563A1, “Method for Enhancing Biological Activity and/or Expanding Suitable Region for Biological Activity of Living Body Contacting with Aqueous Environment” (Kabushiki Kaisha Hayashibara Seibutsu Kagaku Kenky, priority 2004, published 2007).
# Tests used:
# unpolished rice = assay: Germination of unpolished rice in aqueous mineral solution; type: in vivo
# Description: Suitable mineral range of aqueous mineral solutions containing saccharides was examined by using unpolished rice as an agricultural product. In detail, a commercialized purified salt as a mineral was dissolved in tap water to give a final concentration of 0.5, 1.0, 1.5, or 2.0 as described in the following Table 6. α,α-Trehalose or α-maltosyl α,α-trehalose was dissolved in the resulting solutions to give a final concentration of 1 w/v %, on a dry solid basis. Absorbent cotton was allowed to absorb the resulting solution in an appropriate amount and placed in a plastic laboratory dish with a cover. Commercialized unpolished rice grains were placed on the cotton in the dish by 20 grains per group and kept at ambient temperature (25° C.) under a light-shaded condition by covering with a black cloth. As controls, an aqueous mineral solution without saccharides, and water without saccharides and minerals were prepared. […] Effective concentration of α,α-trehalose or α-maltosyl α,α-trehalose on expanding suitable region for biological activity of unpolished rice grains were determined by examining the number of germinated unpolished rice grains and germination time as an index in accordance with the method in Experiment 6 in the aqueous mineral solution with mineral concentration of 1.5 w/v %, where α,α-trehalose or α-maltosyl α,α-trehalose was effective in Experiment 6, containing α,α-trehalose or α-maltosyl α,α-trehalose in a concentration of 0.01, 0.1, 1, 2, 3, 4 or 6 w/v %, on a dry solid basis. As a control, water without saccharides or minerals was used.
# [1] = system: short-necked clam (Ruditapes philippinarum); assay: Biological activity of short-necked clam (aqueduct extension score) in aqueous mineral solutions; type: in vivo; conditions: for Judgment score of biological activity: Experiment 2; for Judgment score for biological activity: total of 18 clams, 16 h
# Description: Suitable region for biological activity of short-necked clam (Ruditapes philippinarum), as a fish or shellfish living in seawater, was examined by adding various saccharides to mineral aqueous solutions with various concentrations. In detail, solar salt (85% by weight of sodium chloride and 15% by weight of magnesium) as minerals was dissolved in running water kept in a container for two days to give final concentrations described in the following Table 1. Saccharide (any one of D-glucose, maltose, sucrose, maltitol, α,α-trehalose, α-maltosyl α,α-trehalose, maltotetraose and cyclic tetrasaccharide) was dissolved in the resulting salt solutions to give a final concentration of 1 w/v %, on a dry solid basis. Each of the resulting solutions was placed in a plastic bat. Eighteen pre-selected active short-necked clam in one group were placed in the bat. The bat was shaded with a black cloth and left at ambient temperature (18° C.) for 16 hours. As a control, an aqueous solar salt solution without any saccharides was prepared. Saccharides except for α-maltosyl α,α-trehalose as a saccharide derivatives thereof and cyclic tetrasaccharide were chosen from commercialized products. α-Maltosyl α,α-trehalose as saccharide derivatives of α,α-trehalose in a powder form with a purity of 98 w/w % or over was prepared by the method disclosed in Experiment 4 in Japanese Patent Kokai No. 143876/1995. Cyclic tetrasaccharide in a crystalline form with a purity of 98 w/w % or over, on a dry solid basis, was prepared by the method disclosed in Example A-7 in International Patent Publication No. WO02/10361. Influence of various saccharides was judged by observing the degree of extending aqueduct of the shellfish; 3 points: its aqueduct is well extended; 2 points: its aqueduct is slightly extended; 1 point: its aqueduct is not extended but its shells are opened; 0 point: its shells are closed. The effect on biological activity was judged by the total point of 18 shellfishes. To investigate the effective concentration range of α,α-trehalose or α-maltosyl α,α-trehalose against a mineral solution with a concentration of 1.5 w/v % or 4.5 w/v %, where α,α-trehalose or α-maltosyl α,α-trehalose was remarkably effective in Experiment 1, the following experiment using α,α-trehalose or α-maltosyl α,α-trehalose at a concentration of 0.01, 0.1, 1, 2, 3 or 4 w/v % was carried out according to the method in Experiment 1. As a control, mineral aqueous solutions with a concentration of 1.5 w/v % or 4.5 w/v % without any of the saccharides were prepared and carried out in the same manner.
# [2] = mineral 1.5 w/v %, saccharide 1 w/v %
# [3] = mineral 4.5 w/v %, saccharide 1 w/v %
structure (smiles),measurement,setting,value
"OC[C@H]1O[C@H](O[C@H]2O[C@H](CO)[C@@H](O[C@H]3O[C@H](CO)[C@@H](O[C@H]4O[C@H](CO)[C@@H](O)[C@H](O)[C@H]4O)[C@H](O)[C@H]3O)[C@H](O)[C@H]2O)[C@H](O)[C@@H](O)[C@@H]1O [α-Maltosyl α,α-trehalose, α-maltosyl α,α-trehalose]",Germinated grains (Number),"unpolished rice; Experiment 7, mineral 1.5 w/v %, saccharide 0.01 w/v %, 48 hours",0
same,Germinated grains (Number),"unpolished rice; Experiment 7, mineral 1.5 w/v %, saccharide 0.01 w/v %, 72 hours",2
same,Germinated grains (Number),"unpolished rice; Experiment 7, mineral 1.5 w/v %, saccharide 0.01 w/v %, 96 hours",2
same,Germinated grains (Number),"unpolished rice; Experiment 7, mineral 1.5 w/v %, saccharide 0.01 w/v %, 120 hours",2
same,Germinated grains (Number),"unpolished rice; Experiment 7, mineral 1.5 w/v %, saccharide 0.1 w/v %, 48 hours",0
same,Germinated grains (Number),"unpolished rice; Experiment 7, mineral 1.5 w/v %, saccharide 0.1 w/v %, 72 hours",2
same,Germinated grains (Number),"unpolished rice; Experiment 7, mineral 1.5 w/v %, saccharide 0.1 w/v %, 96 hours",4
same,Germinated grains (Number),"unpolished rice; Experiment 7, mineral 1.5 w/v %, saccharide 0.1 w/v %, 120 hours",5
same,Germinated grains (Number),"unpolished rice; Experiment 7, mineral 1.5 w/v %, saccharide 1 w/v %, 48 hours",1
same,Germinated grains (Number),"unpolished rice; Experiment 7, mineral 1.5 w/v %, saccharide 1 w/v %, 72 hours",3
same,Germinated grains (Number),"unpolished rice; Experiment 7, mineral 1.5 w/v %, saccharide 1 w/v %, 96 hours",5
same,Germinated grains (Number),"unpolished rice; Experiment 7, mineral 1.5 w/v %, saccharide 1 w/v %, 120 hours",5
same,Germinated grains (Number),"unpolished rice; Experiment 7, mineral 1.5 w/v %, saccharide 2 w/v %, 48 hours",1
same,Germinated grains (Number),"unpolished rice; Experiment 7, mineral 1.5 w/v %, saccharide 2 w/v %, 72 hours",6
same,Germinated grains (Number),"unpolished rice; Experiment 7, mineral 1.5 w/v %, saccharide 2 w/v %, 96 hours",6
same,Germinated grains (Number),"unpolished rice; Experiment 7, mineral 1.5 w/v %, saccharide 2 w/v %, 120 hours",6
same,Germinated grains (Number),"unpolished rice; Experiment 7, mineral 1.5 w/v %, saccharide 3 w/v %, 48 hours",1
same,Germinated grains (Number),"unpolished rice; Experiment 7, mineral 1.5 w/v %, saccharide 3 w/v %, 72 hours",4
same,Germinated grains (Number),"unpolished rice; Experiment 7, mineral 1.5 w/v %, saccharide 3 w/v %, 96 hours",5
same,Germinated grains (Number),"unpolished rice; Experiment 7, mineral 1.5 w/v %, saccharide 3 w/v %, 120 hours",5
same,Germinated grains (Number),"unpolished rice; Experiment 7, mineral 1.5 w/v %, saccharide 4 w/v %, 48 hours",0
same,Germinated grains (Number),"unpolished rice; Experiment 7, mineral 1.5 w/v %, saccharide 4 w/v %, 72 hours",3
same,Germinated grains (Number),"unpolished rice; Experiment 7, mineral 1.5 w/v %, saccharide 4 w/v %, 96 hours",3
same,Germinated grains (Number),"unpolished rice; Experiment 7, mineral 1.5 w/v %, saccharide 4 w/v %, 120 hours",3
same,Germinated grains (Number),"unpolished rice; Experiment 7, mineral 1.5 w/v %, saccharide 6 w/v %, 48 hours",0
same,Germinated grains (Number),"unpolished rice; Experiment 7, mineral 1.5 w/v %, saccharide 6 w/v %, 72 hours",0
same,Germinated grains (Number),"unpolished rice; Experiment 7, mineral 1.5 w/v %, saccharide 6 w/v %, 96 hours",1
same,Germinated grains (Number),"unpolished rice; Experiment 7, mineral 1.5 w/v %, saccharide 6 w/v %, 120 hours",1
same,Germinated grains (Number),"unpolished rice; mineral 0.5 w/v %, saccharide 1 w/v %, 24 hours, 20 grains",0
same,Germinated grains (Number),"unpolished rice; mineral 0.5 w/v %, saccharide 1 w/v %, 48 hours, 20 grains",15
same,Germinated grains (Number),"unpolished rice; mineral 0.5 w/v %, saccharide 1 w/v %, 72 hours, 20 grains",19
same,Germinated grains (Number),"unpolished rice; mineral 0.5 w/v %, saccharide 1 w/v %, 96 hours, 20 grains",20
same,Germinated grains (Number),"unpolished rice; mineral 0.5 w/v %, saccharide 1 w/v %, 120 hours, 20 grains",20
same,Germinated grains (Number),"unpolished rice; mineral 1.0 w/v %, saccharide 1 w/v %, 24 hours, 20 grains",0
same,Germinated grains (Number),"unpolished rice; mineral 1.0 w/v %, saccharide 1 w/v %, 48 hours, 20 grains",3
same,Germinated grains (Number),"unpolished rice; mineral 1.0 w/v %, saccharide 1 w/v %, 72 hours, 20 grains",10
same,Germinated grains (Number),"unpolished rice; mineral 1.0 w/v %, saccharide 1 w/v %, 96 hours, 20 grains",16
same,Germinated grains (Number),"unpolished rice; mineral 1.0 w/v %, saccharide 1 w/v %, 120 hours, 20 grains",16
same,Germinated grains (Number),"unpolished rice; mineral 1.5 w/v %, saccharide 1 w/v %, 24 hours, 20 grains",0
same,Germinated grains (Number),"unpolished rice; mineral 1.5 w/v %, saccharide 1 w/v %, 48 hours, 20 grains",1
same,Germinated grains (Number),"unpolished rice; mineral 1.5 w/v %, saccharide 1 w/v %, 72 hours, 20 grains",3
same,Germinated grains (Number),"unpolished rice; mineral 1.5 w/v %, saccharide 1 w/v %, 96 hours, 20 grains",5
same,Germinated grains (Number),"unpolished rice; mineral 1.5 w/v %, saccharide 1 w/v %, 120 hours, 20 grains",5
same,Germinated grains (Number),"unpolished rice; mineral 2.0 w/v %, saccharide 1 w/v %, 24 hours, 20 grains",0
same,Germinated grains (Number),"unpolished rice; mineral 2.0 w/v %, saccharide 1 w/v %, 48 hours, 20 grains",0
same,Germinated grains (Number),"unpolished rice; mineral 2.0 w/v %, saccharide 1 w/v %, 72 hours, 20 grains",0
same,Germinated grains (Number),"unpolished rice; mineral 2.0 w/v %, saccharide 1 w/v %, 96 hours, 20 grains",0
same,Germinated grains (Number),"unpolished rice; mineral 2.0 w/v %, saccharide 1 w/v %, 120 hours, 20 grains",0
same,Judgment score of biological activity,"[1]; mineral 1.5 w/v %, saccharide 0.01 w/v %",18
same,Judgment score of biological activity,"[1]; mineral 1.5 w/v %, saccharide 0.1 w/v %",35
same,Judgment score of biological activity,[1]; [2],41
same,Judgment score of biological activity,"[1]; mineral 1.5 w/v %, saccharide 2 w/v %",43
same,Judgment score of biological activity,"[1]; mineral 1.5 w/v %, saccharide 3 w/v %",34
same,Judgment score of biological activity,"[1]; mineral 1.5 w/v %, saccharide 4 w/v %",16
same,Judgment score of biological activity,"[1]; mineral 4.5 w/v %, saccharide 0.01 w/v %",16
same,Judgment score of biological activity,"[1]; mineral 4.5 w/v %, saccharide 0.1 w/v %",37
same,Judgment score of biological activity,[1]; [3],44
same,Judgment score of biological activity,"[1]; mineral 4.5 w/v %, saccharide 2 w/v %",45
same,Judgment score of biological activity,"[1]; mineral 4.5 w/v %, saccharide 3 w/v %",30
same,Judgment score of biological activity,"[1]; mineral 4.5 w/v %, saccharide 4 w/v %",15
same,Judgment score for biological activity,"[1]; mineral 0 w/v %, saccharide 1 w/v %",11
same,Judgment score for biological activity,"[1]; mineral 0.5 w/v %, saccharide 1 w/v %",14
same,Judgment score for biological activity,"[1]; mineral 1.0 w/v %, saccharide 1 w/v %",36
same,Judgment score for biological activity,[1]; [2],40
same,Judgment score for biological activity,"[1]; mineral 2.0 w/v %, saccharide 1 w/v %",45
same,Judgment score for biological activity,"[1]; mineral 2.5 w/v %, saccharide 1 w/v %",49
same,Judgment score for biological activity,"[1]; mineral 3.0 w/v %, saccharide 1 w/v %",53
same,Judgment score for biological activity,"[1]; mineral 3.5 w/v %, saccharide 1 w/v %",50
same,Judgment score for biological activity,"[1]; mineral 4.0 w/v %, saccharide 1 w/v %",47
same,Judgment score for biological activity,[1]; [3],45
same,Judgment score for biological activity,"[1]; mineral 5.0 w/v %, saccharide 1 w/v %",33
same,Judgment score for biological activity,"[1]; mineral 5.5 w/v %, saccharide 1 w/v %",11
same,Judgment score for biological activity,"[1]; mineral 6.0 w/v %, saccharide 1 w/v %",2
